According to the NIST ThermoML archive (doi:10.1016/j.jct.2011.08.016):
Numbers after ± are expanded uncertainties.

Assay: xn = mol fraction of the nth substance listed
Settings: Liquid, Vibrating tube method

Compound `CCCCCCCCCC` [decane] + CCCCCCC has a mass density (353.08 K, 19000 kPa, x2 = 0.777) of 668.89 ± 0.55 kg/m3, a mass density (353.08 K, 20000 kPa, x2 = 0.5219) of 683.14 ± 0.54 kg/m3 and a mass density (353.08 K, 20000 kPa, x2 = 0.777) of 669.88 ± 0.56 kg/m3. It also gave a mass density (353.08 K, 21000 kPa, x2 = 0.5219) of 684.06 ± 0.55 kg/m3, a mass density (353.08 K, 21000 kPa, x2 = 0.777) of 670.85 ± 0.57 kg/m3 and a mass density (353.08 K, 22000 kPa, x2 = 0.5219) of 684.96 ± 0.56 kg/m3. It also gave a mass density (353.08 K, 22000 kPa, x2 = 0.777) of 671.79 ± 0.58 kg/m3, a mass density (353.08 K, 23000 kPa, x2 = 0.5219) of 685.84 ± 0.57 kg/m3 and a mass density (353.08 K, 23000 kPa, x2 = 0.777) of 672.72 ± 0.58 kg/m3. It also gave a mass density (353.08 K, 24000 kPa, x2 = 0.5219) of 686.7 ± 0.57 kg/m3, a mass density (353.08 K, 24000 kPa, x2 = 0.777) of 673.63 ± 0.59 kg/m3 and a mass density (353.08 K, 25000 kPa, x2 = 0.5219) of 687.54 ± 0.58 kg/m3. It also gave a mass density (353.08 K, 25000 kPa, x2 = 0.777) of 674.52 ± 0.6 kg/m3, a mass density (353.09 K, 1000 kPa, x2 = 0.2594) of 674.78 ± 0.42 kg/m3 and a mass density (353.09 K, 2000 kPa, x2 = 0.2594) of 675.91 ± 0.42 kg/m3. For the same compound, the mass density (353.09 K, 3000 kPa, x2 = 0.2594) was 677.03 ± 0.43 kg/m3, the mass density (353.09 K, 4000 kPa, x2 = 0.2594) was 678.12 ± 0.43 kg/m3 and the mass density (353.09 K, 5000 kPa, x2 = 0.2594) was 679.23 ± 0.44 kg/m3. The mass density (353.09 K, 6000 kPa, x2 = 0.2594) was 680.3 ± 0.44 kg/m3, the mass density (353.09 K, 7000 kPa, x2 = 0.2594) was 681.37 ± 0.45 kg/m3 and the mass density (353.09 K, 8000 kPa, x2 = 0.2594) was 682.43 ± 0.45 kg/m3. For the same compound, the mass density (353.09 K, 9000 kPa, x2 = 0.2594) was 683.51 ± 0.46 kg/m3, the mass density (353.09 K, 10000 kPa, x2 = 0.2594) was 684.56 ± 0.47 kg/m3 and the mass density (353.09 K, 11000 kPa, x2 = 0.2594) was 685.6 ± 0.47 kg/m3. It also gave a mass density (353.09 K, 12000 kPa, x2 = 0.2594) of 686.61 ± 0.48 kg/m3, a mass density (353.09 K, 13000 kPa, x2 = 0.2594) of 687.61 ± 0.48 kg/m3 and a mass density (353.09 K, 14000 kPa, x2 = 0.2594) of 688.6 ± 0.49 kg/m3. The mass density (353.09 K, 15000 kPa, x2 = 0.2594) was 689.58 ± 0.5 kg/m3, the mass density (353.09 K, 16000 kPa, x2 = 0.2594) was 690.55 ± 0.5 kg/m3 and the mass density (353.09 K, 17000 kPa, x2 = 0.2594) was 691.5 ± 0.51 kg/m3. It also gave a mass density (353.09 K, 18000 kPa, x2 = 0.2594) of 692.42 ± 0.52 kg/m3, a mass density (353.09 K, 19000 kPa, x2 = 0.2594) of 693.33 ± 0.52 kg/m3 and a mass density (353.09 K, 20000 kPa, x2 = 0.2594) of 694.24 ± 0.53 kg/m3. The mass density (353.09 K, 21000 kPa, x2 = 0.2594) was 695.13 ± 0.54 kg/m3, the mass density (353.09 K, 22000 kPa, x2 = 0.2594) was 695.95 ± 0.54 kg/m3 and the mass density (353.09 K, 23000 kPa, x2 = 0.2594) was 696.8 ± 0.55 kg/m3. It also gave a mass density (353.09 K, 24000 kPa, x2 = 0.2594) of 697.62 ± 0.56 kg/m3, a mass density (353.09 K, 25000 kPa, x2 = 0.2594) of 698.42 ± 0.56 kg/m3 and a mass density (353.12 K, 1000 kPa, x2 = 0.952) of 636.17 ± 0.44 kg/m3. For the same compound, the mass density (353.12 K, 2000 kPa, x2 = 0.952) was 637.58 ± 0.44 kg/m3, the mass density (353.12 K, 3000 kPa, x2 = 0.952) was 638.96 ± 0.45 kg/m3 and the mass density (353.12 K, 4000 kPa, x2 = 0.952) was 640.34 ± 0.45 kg/m3. For the same compound, the mass density (353.12 K, 5000 kPa, x2 = 0.952) was 641.71 ± 0.46 kg/m3, the mass density (353.12 K, 6000 kPa, x2 = 0.952) was 643.05 ± 0.47 kg/m3 and the mass density (353.12 K, 7000 kPa, x2 = 0.952) was 644.36 ± 0.47 kg/m3. The mass density (353.12 K, 8000 kPa, x2 = 0.952) was 645.65 ± 0.48 kg/m3, the mass density (353.12 K, 9000 kPa, x2 = 0.952) was 646.91 ± 0.49 kg/m3 and the mass density (353.12 K, 10000 kPa, x2 = 0.952) was 648.14 ± 0.49 kg/m3. The mass density (353.12 K, 11000 kPa, x2 = 0.952) was 649.36 ± 0.5 kg/m3, the mass density (353.12 K, 12000 kPa, x2 = 0.952) was 650.55 ± 0.51 kg/m3 and the mass density (353.12 K, 13000 kPa, x2 = 0.952) was 651.72 ± 0.52 kg/m3. For the same compound, the mass density (353.12 K, 14000 kPa, x2 = 0.952) was 652.87 ± 0.53 kg/m3, the mass density (353.12 K, 15000 kPa, x2 = 0.952) was 654 ± 0.53 kg/m3 and the mass density (353.12 K, 16000 kPa, x2 = 0.952) was 655.12 ± 0.54 kg/m3. It also gave a mass density (353.12 K, 17000 kPa, x2 = 0.952) of 656.22 ± 0.55 kg/m3, a mass density (353.12 K, 18000 kPa, x2 = 0.952) of 657.29 ± 0.56 kg/m3 and a mass density (353.12 K, 19000 kPa, x2 = 0.952) of 658.35 ± 0.56 kg/m3. It also gave a mass density (353.12 K, 20000 kPa, x2 = 0.952) of 659.4 ± 0.57 kg/m3, a mass density (353.12 K, 21000 kPa, x2 = 0.952) of 660.42 ± 0.58 kg/m3 and a mass density (353.12 K, 22000 kPa, x2 = 0.952) of 661.43 ± 0.59 kg/m3. The mass density (353.12 K, 23000 kPa, x2 = 0.952) was 662.41 ± 0.6 kg/m3, the mass density (353.12 K, 24000 kPa, x2 = 0.952) was 663.35 ± 0.61 kg/m3 and the mass density (353.12 K, 25000 kPa, x2 = 0.952) was 664.3 ± 0.61 kg/m3. The mass density (363.02 K, 1000 kPa, x2 = 0.5219) was 654.13 ± 0.43 kg/m3, the mass density (363.02 K, 1000 kPa, x2 = 0.777) was 639 ± 0.43 kg/m3 and the mass density (363.02 K, 2000 kPa, x2 = 0.5219) was 655.44 ± 0.43 kg/m3. It also gave a mass density (363.02 K, 2000 kPa, x2 = 0.777) of 640.47 ± 0.44 kg/m3, a mass density (363.02 K, 3000 kPa, x2 = 0.5219) of 656.74 ± 0.44 kg/m3 and a mass density (363.02 K, 3000 kPa, x2 = 0.777) of 641.89 ± 0.44 kg/m3. For the same compound, the mass density (363.02 K, 4000 kPa, x2 = 0.5219) was 657.94 ± 0.44 kg/m3, the mass density (363.02 K, 4000 kPa, x2 = 0.777) was 643.28 ± 0.45 kg/m3 and the mass density (363.02 K, 5000 kPa, x2 = 0.5219) was 659.19 ± 0.45 kg/m3. It also gave a mass density (363.02 K, 5000 kPa, x2 = 0.777) of 644.65 ± 0.46 kg/m3, a mass density (363.02 K, 6000 kPa, x2 = 0.5219) of 660.44 ± 0.45 kg/m3 and a mass density (363.02 K, 6000 kPa, x2 = 0.777) of 646 ± 0.46 kg/m3. It also gave a mass density (363.02 K, 7000 kPa, x2 = 0.5219) of 661.67 ± 0.46 kg/m3, a mass density (363.02 K, 7000 kPa, x2 = 0.777) of 647.32 ± 0.47 kg/m3 and a mass density (363.02 K, 8000 kPa, x2 = 0.5219) of 662.86 ± 0.47 kg/m3. For the same compound, the mass density (363.02 K, 8000 kPa, x2 = 0.777) was 648.61 ± 0.48 kg/m3, the mass density (363.02 K, 9000 kPa, x2 = 0.5219) was 664.05 ± 0.47 kg/m3 and the mass density (363.02 K, 9000 kPa, x2 = 0.777) was 649.89 ± 0.48 kg/m3. The mass density (363.02 K, 10000 kPa, x2 = 0.5219) was 665.24 ± 0.48 kg/m3, the mass density (363.02 K, 10000 kPa, x2 = 0.777) was 651.15 ± 0.49 kg/m3 and the mass density (363.02 K, 11000 kPa, x2 = 0.5219) was 666.41 ± 0.49 kg/m3. For the same compound, the mass density (363.02 K, 11000 kPa, x2 = 0.777) was 652.39 ± 0.5 kg/m3, the mass density (363.02 K, 12000 kPa, x2 = 0.5219) was 667.56 ± 0.49 kg/m3 and the mass density (363.02 K, 12000 kPa, x2 = 0.777) was 653.61 ± 0.5 kg/m3. The mass density (363.02 K, 13000 kPa, x2 = 0.5219) was 668.7 ± 0.5 kg/m3, the mass density (363.02 K, 13000 kPa, x2 = 0.777) was 654.81 ± 0.51 kg/m3 and the mass density (363.02 K, 14000 kPa, x2 = 0.5219) was 669.81 ± 0.51 kg/m3. It also gave a mass density (363.02 K, 14000 kPa, x2 = 0.777) of 655.99 ± 0.52 kg/m3, a mass density (363.02 K, 15000 kPa, x2 = 0.5219) of 670.91 ± 0.51 kg/m3 and a mass density (363.02 K, 15000 kPa, x2 = 0.777) of 657.15 ± 0.53 kg/m3. It also gave a mass density (363.02 K, 16000 kPa, x2 = 0.5219) of 671.98 ± 0.52 kg/m3.
